# Results as given in patent publication US20100330029A1, “Cancer Treatments with Radiation and Immunocytokines” (Merck Patent GmbH, priority 2008, published 2010).
# Assays:
# [1] = system: T cell and T cell activation-associated genes in the tumor; assay: qPCR gene profiling of tumors, CT26/KSA model; type: in vivo, mice
# Protocol: (§1) Gene profiling of tumors was analyzed using excised tumor tissues placed in RNAlater® RNA stabilizing reagent upon harvest. Total RNA was prepared with an RNeasy® kit (Qiagen) and cDNA was prepared with the Superscript® III kit for qPCR (Life Technologies, Inc.). qPCR reactions were performed on an ABI7500 instrument in a standardized fashion and relative changes in gene expression were analyzed using the ddCt method (efficiency factor 95%). Housekeeping genes used for comparison included ACTB, B2M and HPRT1.
# [2] = system: immune markers in LLC tumors; assay: immune gene expression profiling of LLC tumors; type: in vivo, mice; settings: for CD3 gene expression increase / CD8 gene expression increase / CISH gene expression increase / CXCL9 gene expression increase / IFNg gene expression increase: LLC-6; for CD3 gene expression increase: EMD521873+chemoradiation vs EMD521873 or chemoradiation alone; for CD8 gene expression increase / CISH gene expression increase / CXCL9 gene expression increase / IFNg gene expression increase: EMD521873+chemoradiation vs either alone
# Protocol: as §1
# [3] = system: CD8 effector cells in the blood; assay: FACS analysis of blood, LLC dual tumor model; type: in vivo, mice; settings: Experiment LLC-6; combination compared to either chemoradiation or EMD521873 alone
# Protocol: Immune effector cell populations in blood were analyzed by FACS. Blood was collected from the retro-orbital sinus of each mouse. Red blood cells were eliminated using lysis buffer. After blocking with rat IgG (1:50), samples were incubated with a 7-color cocktail of antibodies against CD4, CD8, CD25, CD44, CD62L, CD11b, and DX5. Samples were run on a FacsARIA and analyzed for various cell subpopulations.
# In another experiment, LLC tumors were established subcutaneously in both the leg and flank of the same animal. Animals were then treated with either cisplatin (4 mg/kg, d0) plus fractionated radiation given to the leg tumor (3.6 Gy/d, d0-4), i.v. EMD521873 alone (5 mg/kg, d7, 8, 9), or the combination of EMD521873 plus chemoradiation (Experiment LLC-6). Tumor growth and immune response in both the irradiated leg tumor and the non-irradiated flank tumor were monitored. […] CD8 effector cells were increased by approximately 4-fold in the blood with the combination compared to either chemoradiation or EMD521873 alone.
# LLC tumors = assay: survival after surgical removal of treated LLC tumor; type: in vivo, mice; settings: Experiment LLC-7; EMD521873 5 mg/kg d7, 8, 9 plus chemoradiation; tumor removed day 12 or 13
# Protocol: For the tumor growth assay, cells growing exponentially in culture were injected as a single cell suspension in 100 μl of PBS intramuscularly into the upper legs of the mice. In experiments using a dual tumor model, cells were also implanted in the flanks of the mice. After tumors had become established, treatment was initiated (day 0). In Experiment LLC-7, tumors were implanted in the flank until established. Mice were treated on days 0 to 9, then, on day 12, tumors were excised using survival surgery. Thereafter, animal survival was monitored. In Experiment LLC-14, tumors were implanted subcutaneously in the flank until established. Mice were treated on days 0 to 6 and day 17, and tumor size was measured twice weekly for the duration of the study.
# In another experiment the ability of local irradiation followed by immunocytokine administration to reduce tumor recurrence following surgery was tested (Experiment LLC-7). Mice with subcutaneous LLC tumors were treated with either chemoradiation (cisplatin 4 mg/kg, d0 plus 3.6 Gy/d, d0-4 of fractionated radiation given to the tumor) or EMD521873 (5 mg/kg, d7, 8, 9) plus chemoradiation. The remaining tumor was then surgically removed on day 12 or 13 and survival was monitored. Ten out of 12 mice treated with the combination achieved long term survival compared to 6 out of 10 treated with radiation alone.
# [4] = system: non-small cell lung cancer; assay: dose-escalation trial in non-small cell lung cancer; type: in vivo; settings: human NSCLC; local irradiation 5×4 Gy then EMD521873 at a dose level below the MTD
# Protocol: An dose-escalation trial is performed using EMD521873 in combination with local irradiation (20 Gy) of primary tumors or metastases in subjects with non-small cell lung cancer stage IIIb with malignant pleural effusion or stage IV with disease control (partial response or stable disease) after application of 4 cycles of platinum-based, first-line chemotherapy.
# Subjects receive local irradiation (5×4 Gy) given over 5 consecutive days, prior to the first treatment cycle with EMD521873. After a 2-day treatment-free interval, intravenous infusions of EMD521873 are given on 3 consecutive days in 3-week cycles.
# In each cycle, patients receive EMD521873 given as a once-daily, 1-h intravenous infusion on 3 consecutive days (days 1-3) followed by an 18-day treatment-free break (days 4-21).
# Dose escalation of EMD521873 is performed in cohorts of 3 subjects at dose levels of 0.15, 0.30, and 0.45 mg/kg. Escalation to the next dose level is based on the number of dose limiting toxicities (DLTs) observed, if any, during the DLT evaluation period (i.e. the 21 days following the day of first infusion of […] in the first cycle). DLTs are defined as any grade ≧3 toxicity assessed as related to trial treatment (EMD521873 and/or radiation). If no DLT occurs in the 3 subjects, the next 3 subjects are recruited at the next highest dose level. […]
# [5] = LLC-13, radiation in the 2 weeks prior to EMD521873
# [6] = LLC-13, radiation in the first week followed by EMD521873
substance,measurement,setting,value
dI-NHS76γ2(h)(FN>AQ)-ala-IL2(D20T) [EMD521873],levels of FoxP3 gene expression in the tumor,[1]; radiation followed by EMD521873 (combination),did not increase
same,"CD8, Granzyme B, and IFNγ gene expression increase in the tumor","[1]; radiation followed by EMD521873, compared to either EMD521873 or radiation alone",3.5-4.6 fold
same,"gene expression profiling, panel of immune markers","[2]; Experiments LLC-1, LLC-2, radiation plus EMD521873 compared to either alone","increases in markers for T cell, T cell activation, lymphocyte trafficking, and Th1 response"
same,CD3 gene expression increase,[2]; flank tumor (non-irradiated),8 fold
same,CD8 gene expression increase,[2]; flank tumor,3.5 fold
same,CISH gene expression increase,[2]; flank tumor,3.2 fold
same,CXCL9 gene expression increase,[2]; flank tumor,14 fold
same,IFNg gene expression increase,[2]; flank tumor,7 fold
same,CD3 gene expression increase,[2]; leg tumor (irradiated),> 20 fold
same,CD8 gene expression increase,[2]; leg tumor,10 fold
same,CISH gene expression increase,[2]; leg tumor,5.8 fold
same,CXCL9 gene expression increase,[2]; leg tumor,10.5 fold
same,IFNg gene expression increase,[2]; leg tumor,14 fold
same,"12 immune expression markers (GZMB, PDCD1, NKG7, NKG2D, CD3G, ITGAL, CD122, CD8A, FASL, CTLA4, INOS, CD25) upregulated","[2]; LLC-8, LLC-9, EMD521873 plus chemoradiation relative to the maximal level achieved in the monotherapies",3 to 6 times
same,immune gene response profile,"[2]; LLC-11, EMD521873 followed by radiation, compared to EMD521873 or either radiation regimen alone",not significantly affected
same,immune response in the tumor (immune gene profiling),"[2]; LLC-12, EMD521873 during the 2nd week of a 3 week course of radiation vs 1 week or 2 week course",blunted
same,CD3 fold-induction compared to untreated control,[2]; [5],~14 fold
same,CD8 fold-induction compared to untreated control,[2]; [5],~6 fold
same,CD25 fold-induction compared to untreated control,[2]; [5],~22 fold
same,IFNγ fold-induction compared to untreated control,[2]; [5],~10 fold
same,granzyme fold-induction compared to untreated control,[2]; [5],~2 fold
same,perforin fold-induction compared to untreated control,[2]; [5],~5 fold
same,immune response gene profile in the tumor,"[2]; LLC-13, radiation in the 3 weeks prior to EMD521873",nearly complete abrogation of the immune response
same,CD3 fold-induction compared to untreated control,[2]; [6],~50 fold
same,CD8 fold-induction compared to untreated control,[2]; [6],~19 fold
same,CD25 fold-induction compared to untreated control,[2]; [6],~45 fold
same,IFNγ fold-induction compared to untreated control,[2]; [6],~22 fold
same,granzyme fold-induction compared to untreated control,[2]; [6],~22 fold
same,perforin fold-induction compared to untreated control,[2]; [6],~8 fold
same,CD8 effector cells increased in the blood,[3],approximately 4 fold
same,long term survival after surgery,LLC tumors,Ten out of 12
same,rates of tumor response (CT or MRI scan),[4],improved rates of tumor response
